Assay results from ChEMBL document CHEMBL2074492, “Selective substrates for non-neuronal monoamine transporters” (Mol Pharmacol, 1999).

T1: Solute carrier family 22 member 2 (Rattus norvegicus, UniProt Q9R0W2)
T1 sequence (Q9R0W2 whole entry): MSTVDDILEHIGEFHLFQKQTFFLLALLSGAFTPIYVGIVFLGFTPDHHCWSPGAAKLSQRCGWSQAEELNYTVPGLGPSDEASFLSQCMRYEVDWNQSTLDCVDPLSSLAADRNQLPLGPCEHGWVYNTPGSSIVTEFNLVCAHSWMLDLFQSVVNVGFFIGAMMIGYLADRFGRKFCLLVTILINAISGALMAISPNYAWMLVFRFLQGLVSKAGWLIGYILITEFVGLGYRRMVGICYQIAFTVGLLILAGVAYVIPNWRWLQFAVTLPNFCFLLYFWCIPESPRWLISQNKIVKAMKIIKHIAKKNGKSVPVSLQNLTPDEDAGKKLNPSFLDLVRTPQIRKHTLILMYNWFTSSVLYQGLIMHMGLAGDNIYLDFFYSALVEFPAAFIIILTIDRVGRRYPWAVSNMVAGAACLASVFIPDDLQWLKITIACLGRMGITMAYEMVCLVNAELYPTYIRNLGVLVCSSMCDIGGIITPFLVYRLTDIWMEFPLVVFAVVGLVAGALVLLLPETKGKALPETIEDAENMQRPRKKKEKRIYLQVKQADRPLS

T2: Solute carrier family 22 member 1 (Rattus norvegicus, UniProt Q63089)
T2 sequence (Q63089 whole entry): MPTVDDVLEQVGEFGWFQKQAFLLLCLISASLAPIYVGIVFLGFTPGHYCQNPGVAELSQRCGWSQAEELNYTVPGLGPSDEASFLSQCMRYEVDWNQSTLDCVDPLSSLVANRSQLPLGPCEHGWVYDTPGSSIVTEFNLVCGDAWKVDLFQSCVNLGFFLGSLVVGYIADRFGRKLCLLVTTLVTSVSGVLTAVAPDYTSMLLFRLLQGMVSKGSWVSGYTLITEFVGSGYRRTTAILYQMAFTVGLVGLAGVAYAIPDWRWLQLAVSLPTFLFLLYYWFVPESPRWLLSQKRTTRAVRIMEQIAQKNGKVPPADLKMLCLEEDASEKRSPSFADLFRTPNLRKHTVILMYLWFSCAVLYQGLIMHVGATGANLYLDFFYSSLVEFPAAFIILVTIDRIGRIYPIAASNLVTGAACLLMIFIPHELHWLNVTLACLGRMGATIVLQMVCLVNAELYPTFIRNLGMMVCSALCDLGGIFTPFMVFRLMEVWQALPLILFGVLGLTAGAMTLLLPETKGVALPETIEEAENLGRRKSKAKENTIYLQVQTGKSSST

T3: Solute carrier family 22 member 3 (Homo sapiens, UniProt O75751)
T3 sequence (O75751 whole entry): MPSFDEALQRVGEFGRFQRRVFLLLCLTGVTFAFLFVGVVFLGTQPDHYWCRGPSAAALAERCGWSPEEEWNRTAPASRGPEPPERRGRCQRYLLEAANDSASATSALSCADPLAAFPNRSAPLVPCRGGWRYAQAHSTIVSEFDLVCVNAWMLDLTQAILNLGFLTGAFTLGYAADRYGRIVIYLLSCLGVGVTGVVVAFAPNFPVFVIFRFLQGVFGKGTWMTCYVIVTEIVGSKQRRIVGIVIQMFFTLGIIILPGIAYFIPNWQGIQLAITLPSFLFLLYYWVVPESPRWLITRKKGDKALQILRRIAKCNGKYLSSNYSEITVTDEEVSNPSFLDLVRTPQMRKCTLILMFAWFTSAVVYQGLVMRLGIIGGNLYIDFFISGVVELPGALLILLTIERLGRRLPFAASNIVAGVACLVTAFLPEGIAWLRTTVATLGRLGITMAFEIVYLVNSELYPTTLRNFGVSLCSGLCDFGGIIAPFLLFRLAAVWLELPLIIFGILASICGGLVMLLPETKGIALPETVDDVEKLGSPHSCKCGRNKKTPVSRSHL


How the values were obtained:
[1] = target: T1, Solute carrier family 22 member 2; assay: TP_TRANSPORTER: inhibition of MPP+ uptake in OCT2-expressing HEK293 cells; format: functional, cell-based
[2] = target: T1, Solute carrier family 22 member 2; assay: (§1) TP_TRANSPORTER: uptake in OCT2-expressing HEK293 cells; format: functional, cell-based; conditions: human
[3] = target: T2, Solute carrier family 22 member 1; assay: TP_TRANSPORTER: inhibition of MPP+ uptake in OCT1-expressing HEK293 cells
[4] = target: T3, Solute carrier family 22 member 3; assay: TP_TRANSPORTER: inhibition of MPP+ uptake in OCT3-expressing HEK293 cells
[5] = substrate: C[n+]1ccc(-c2ccccc2)cc1; assay: as §1; format: functional, cell-based
[6] = substrate: N=C(N)N; assay: as §1; format: functional, cell-based

Row | Molecule | Ki [1] | Activity [2] | further results
1 | N=C(N)N [GUANIDINE] | 280 µM |  | 
2 | CC[N+](CC)(CC)CC [TETRYLAMMONIUM] |  | substrate [+] | 
3 | CN1CC(=O)NC1=N [CREATININE] |  | substrate [+] | 
4 | NCCc1c[nH]cn1 [HISTAMINE] | 390 µM |  | Ki [3]: 1400 µM; Ki [4]: 140 µM
5 | Solute carrier family 22 member 2 (Rattus norvegicus) (protein) MSTVDDILEHIGEFHLFQKQTFFLLALLSGAFTPIYVGIVFLGFTPDHHCWSPGAAKLSQRCGWSQAEELNYTVPGLGPSDEASFLSQCMRYEVDWNQSTLDCVDPLSSLAADRNQLPLGPCEHGWVYNTPGSSIVTEFNLVCAHSWMLDLFQSVVNVGFFIGAMMIGYLADRFGRKFCLLVTILINAISGALMAISPNYAWMLVFRFLQGLVSKAGWLIGYILITEFVGLGYRRMVGICYQIAFTVGLLILAGVAYVIPNWRWLQFAVTLPNFCFLLYFWCIPESPRWLISQNKIVKAMKIIKHIAKKNGKSVPVSLQNLTPDEDAGKKLNPSFLDLVRTPQIRKHTLILMYNWFTSSVLYQGLIMHMGLAGDNIYLDFFYSALVEFPAAFIIILTIDRVGRRYPWAVSNMVAGAACLASVFIPDDLQWLKITIACLGRMGITMAYEMVCLVNAELYPTYIRNLGVLVCSSMCDIGGIITPFLVYRLTDIWMEFPLVVFAVVGLVAGALVLLLPETKGKALPETIEDAENMQRPRKKKEKRIYLQVKQADRPLS |  |  | Km [5]: 9.4 µM; Km [6]: 730 µM
